In one test the target is T1, IL-7R (Homo sapiens, UniProt P16871+P31785).
T1 construct: constructed to express full-length human IL-7Rα in TF-1 cells; TF-1 cells, which naturally express γc, but not IL-7Rα; expressed in transfected cells
T1 sequence (P16871 21-459): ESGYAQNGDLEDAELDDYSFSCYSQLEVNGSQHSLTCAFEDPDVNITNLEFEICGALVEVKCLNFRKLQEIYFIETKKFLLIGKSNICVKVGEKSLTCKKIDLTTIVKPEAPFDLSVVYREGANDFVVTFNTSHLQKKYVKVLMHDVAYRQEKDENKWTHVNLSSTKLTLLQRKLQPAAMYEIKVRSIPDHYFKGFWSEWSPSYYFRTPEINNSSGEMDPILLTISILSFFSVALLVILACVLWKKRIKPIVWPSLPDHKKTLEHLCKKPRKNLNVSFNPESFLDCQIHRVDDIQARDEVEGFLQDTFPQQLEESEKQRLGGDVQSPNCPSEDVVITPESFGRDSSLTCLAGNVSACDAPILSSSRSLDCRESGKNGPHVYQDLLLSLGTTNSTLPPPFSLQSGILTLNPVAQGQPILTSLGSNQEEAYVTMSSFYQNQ
T1 sequence (P31785 23-369): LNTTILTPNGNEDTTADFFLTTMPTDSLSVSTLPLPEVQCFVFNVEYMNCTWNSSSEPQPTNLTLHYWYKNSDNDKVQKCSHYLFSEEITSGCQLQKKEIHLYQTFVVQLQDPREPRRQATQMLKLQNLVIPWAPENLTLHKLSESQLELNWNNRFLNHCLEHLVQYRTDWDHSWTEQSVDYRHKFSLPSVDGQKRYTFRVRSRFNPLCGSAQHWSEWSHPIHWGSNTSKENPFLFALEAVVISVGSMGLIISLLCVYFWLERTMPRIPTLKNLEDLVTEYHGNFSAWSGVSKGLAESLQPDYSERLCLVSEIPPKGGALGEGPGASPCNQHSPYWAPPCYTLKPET
In words: STAT5 phosphorylation in TF1-7Rα cells. The test is classed as cell-based. The note with it: TF1-7Rα cells, 10 μM peptide alone. How it is done: The synthetic peptide MDK1472 was designed to bind simultaneously to IL-7Rα and γc subunits and was tested for its ability to induce phosphorylation of STAT5, the primary IL-7R signaling pathway.
Reactions were stopped and cell lysates prepared for pSTAT5 analysis.
(§1) Cells were deprived of growth factors by overnight incubation at 5×10^5 cells/mL in starvation medium (RPMI 1640 + 4.5 g/L glucose + 0.2% FBS + 2 mM L-glutamine + 1 mM NaPyr + 10 mM HEPES + 0.5x penicillin-streptomycin with no cytokine supplement) in T75 flasks. For assays, cells were plated in 96-well V-bottom plates at 2×10^5 cells/well. Three-fold serial dilutions in starvation medium of the test compounds or cytokine were added to the cells and incubated for 30 min at 37°C. Following incubation, cell extracts were prepared by adding a mixture of 10x Cell Lysis Buffer (Cell Signaling Technology Cat# 9803) and 100x HALT Phosphatase and Protease Inhibitor Cocktail (Thermo Fisher Cat# 78442) directly to the wells. The plates were agitated at 25°C for 5 min to prepare cell extracts for immediate use or to be stored at -80°C until assay. Detection of pSTAT5 was performed using a PathScan® Phospho-Stat5 (pTyr694) Sandwich ELISA Kit (Cell Signaling Technology Cat# 7113). Detection of pSTAT6 was performed using a PathScan® Phospho-Stat6 (pTyr641) Sandwich ELISA Kit (Cell Signaling Technology Cat# 7275). Detection of pSTAT3 was performed using a PathScan® Phospho-Stat3 (pTyr705) Sandwich ELISA Kit (Cell Signaling Technology Cat# 7300). Cell lysates were added to pre-coated ELISA wells and incubated at 4°C overnight. Primary and secondary antibody incubations and wash steps were performed according to the protocols supplied by the manufacturer. Assays were developed using TMB substrate (Surmodics Cat# TMBW-1000-01) for 5–10 min at 25°C and the reaction was stopped using STOP solution (Surmodics Cat# LSTP-1000-01).

A further test concerns the target T2, IL-2βγc receptor (Homo sapiens, UniProt P31785).
T2 construct: pcDNA3.1 expression vector encoding full-length IL-2Rβ, IL-7Rα, IL-9Rα, or IL-21Rα; TF-1 cells naturally express γc and IL-4Rα; expressed in transfected cells
T2 sequence (P31785 23-369): T1 sequence (P31785 23-369)
In words: IL-2-induced pSTAT5 in TF-1 cells expressing IL-2/15Rβ. The test is classed as cell-based. As for the experimental part:
as §1, with “Primary and secondary antibody incubations and wash steps were performed according to the protocols supplied by the manufacturer. Assays were developed using TMB substrate (Surmodics Cat# TMBW-1000-01) for 5–10 min at 25°C and the reaction was stopped using STOP solution (Surmodics Cat# LSTP-1000-01).” left out

In another test the target is T3, human γc ECD (Homo sapiens, UniProt P31785).
T3 construct: human IL-2Rα(aa 23–254)-Fc, Acro Cat# ILG-H5256; purchased Acro ILG-H5256
T3 sequence (P31785 23-254): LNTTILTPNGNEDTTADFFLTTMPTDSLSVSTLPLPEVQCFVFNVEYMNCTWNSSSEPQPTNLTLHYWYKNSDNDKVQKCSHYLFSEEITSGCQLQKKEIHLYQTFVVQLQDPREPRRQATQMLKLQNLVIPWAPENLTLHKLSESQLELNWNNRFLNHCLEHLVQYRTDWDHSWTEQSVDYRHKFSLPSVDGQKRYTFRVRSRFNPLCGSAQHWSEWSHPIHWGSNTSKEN
In words: Competition binding ELISA, human γc ECD. The note with it: immobilized Fc-γc ECD; tracer biotinylated MDK1188 pre-complexed with Neutravidin-HRP; 4°C. An excerpt: (§2) (A, B) Determination of IC50 values in a competition ELISA for compound binding to human and cyno IL-7Rα and γc. The assay format is IL-7Rα-(His)6-tagged ECD or Fc-γc ECD immobilized on 96-well plates. Tracers are C-terminal biotinylated forms of the reference IL-7Rα and γc peptide ligands, each pre-complexed with Neutravidin-HRP (NA-HRP). (C, D) Label-free measurement of the equilibrium dissociation constant (KD) for peptide binding to IL-7Rα and γc extracellular domains with peptides was performed by biolayer interferometry as detailed in methods. Red lines depict 1:1 binding fit from Gator™ software. Blue lines represent individual BLI sensogram data taken every 0.1 seconds.
(§3) Binding was determined using a competition binding ELISA. Microtiter plates (Immulon 4HBX flat bottom 96-well) were coated with 50 μL of […] human ECDs: IL-7Rα(aa 21–236)-His6, Sino Biological Cat# 10975-H08H; cynomolgus IL-7Rα(aa 21–235)-His6, Sino Biological Cat# 90332-C08H; human IL-2Rα(aa 23–254)-Fc, Acro Cat# ILG-H5256; cynomolgus IL-2Rα(aa 23–254)-Fc, made in-house, in PBS overnight at 4°C. […] Plates were washed with cold wash buffer, and bound tracer was detected using TMB One Component HRP substrate and Stop Solution (Surmodics Cat# TMBW-1000-01 and LSTP-0100-01). Absorbance at 450 nm was read using Agilent BioTek Synergy HTX Multimode Reader.

For a further test, the target named is T4, human IL-7Rα ECD (Homo sapiens, UniProt P16871).
T4 construct: IL-7Rα(aa 21–236)-His6, Sino Biological Cat# 10975-H08H; His6 (C); purchased Sino Biological 10975-H08H
T4 sequence (P16871 21-236): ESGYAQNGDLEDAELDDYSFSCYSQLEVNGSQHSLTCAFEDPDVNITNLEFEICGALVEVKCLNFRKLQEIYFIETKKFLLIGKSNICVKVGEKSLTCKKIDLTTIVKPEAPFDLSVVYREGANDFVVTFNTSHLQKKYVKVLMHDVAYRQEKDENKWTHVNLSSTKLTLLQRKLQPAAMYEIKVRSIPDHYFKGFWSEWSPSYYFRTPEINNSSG
In words: Competition binding ELISA, human IL-7Rα ECD. The note with it: immobilized IL-7Rα-(His)6 ECD; tracer biotinylated MDK1248 pre-complexed with Neutravidin-HRP; 4°C; valency-sensitive format.
Source text: as §2, §3

The next test has as its target T5, cynomolgus IL-7Rα (Macaca fascicularis, UniProt Q38IC7).
T5 construct: cynomolgus IL-7Rα(aa 21–235)-His6, Sino Biological Cat# 90332-C08H; His6 (C); purchased Sino Biological 90332-C08H
T5 sequence (Q38IC7 21-235): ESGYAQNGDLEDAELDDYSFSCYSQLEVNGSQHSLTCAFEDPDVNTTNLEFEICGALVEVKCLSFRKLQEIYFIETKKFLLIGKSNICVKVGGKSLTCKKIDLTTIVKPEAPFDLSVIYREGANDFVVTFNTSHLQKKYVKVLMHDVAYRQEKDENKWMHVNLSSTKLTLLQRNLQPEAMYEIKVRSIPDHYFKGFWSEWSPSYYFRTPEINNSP
In words: Competition binding ELISA, cynomolgus IL-7Rα ECD. The note with it: immobilized cynomolgus IL-7Rα-His6 ECD; biotinylated peptide/NA-HRP tracer; read-out: Competition ELISA IC50, IL-7Rα Cyno.
Source text: as §2, §3

The results in this text go back to publication PMC10597491 (PLOS ONE, 2023).

Molecules are shown by their SMILES. pIC50: −log10 of the molar value. Bridge positions count the residues as written; N and C are the ends. Peptide text beside a SMILES is read from it.

In the case of `CC(C)C[C@@H]1NC(=O)[C@H](CCC(=O)O)NC(=O)[C@H](C(C)C)NC(=O)CNC(=O)[C@H](CCC(=O)O)NC(=O)[C@H](Cc2c[nH]c3ccccc23)NC(=O)[C@H](CC(=O)O)NC(=O)[C@H](CCC(N)=O)NC(=O)[C@@H](NC(=O)[C@@H](NC(=O)[C@@H](NC(=O)CNC(=O)CN)C(C)C)C(C)C)CSSC[C@@H](C(=O)N[C@@H](Cc2c[nH]c3ccccc23)C(=O)N[C@@H](CCC(N)=O)C(=O)NCC(=O)NCC(=O)O)NC1=O` [MDK1188], the “induction of pSTAT5 by individual peptide ligands” value on IL-7R is reported as “no induction of pSTAT5”. Further, the pIC50 is 5.80 at IL-2βγc receptor and 7.62 on human γc ECD.

Consider `CC[C@H](C)[C@H](NC(=O)CNC(=O)[C@H](Cc1c[nH]c2ccccc12)NC(=O)CN)C(=O)N1CCC[C@H]1C(=O)N[C@@H](Cc1c[nH]c2ccccc12)C(=O)N[C@H]1CSSC[C@@H](C(=O)N[C@@H](C)C(=O)N[C@@H](Cc2c[nH]c3ccccc23)C(=O)N[C@@H](CC(C)C)C(=O)NCC(=O)N[C@@H](CCCCN)C(=O)N[C@@H](Cc2c[nH]cn2)C(=O)NCC(=O)NCC(=O)O)NC(=O)[C@H](CCC(N)=O)NC(=O)[C@H](CC(C)C)NC(=O)[C@H](CO)NC(=O)CNC(=O)[C@@H]2CCCN2C(=O)[C@H](CC(=O)O)NC(=O)[C@H](CC(C)C)NC(=O)[C@H]([C@@H](C)O)NC1=O` [MDK1248] (H-GWGIPWCTLDPGSLQCAWLGKHGG-OH; disulfide 7-16), for which the pIC50 at human IL-7Rα ECD is 6.82; at cynomolgus IL-7Rα it was 7.04. Besides, the “induction of pSTAT5 by individual peptide ligands” value at IL-7R was “no induction of pSTAT5”.
